Assay results published in patent US9186337B2, “Lysine demethylase inhibitors for diseases and disorders associated with Hepadnaviridae” (Oryzon Genomics S.A., priority 2010, dated 2015).

Key:
[1] = Maximum tolerated dose study in mice; assay type: in vivo; details: IP, 20, 40 and 60 mg/kg daily for 10 days
Experimental: (§1) Maximum tolerated dose studies and pharmacokinetics for several LSD1 inhibitors were assessed to determine if the compound can be administered to mammals safely at does that are expected to achieve therapeutic effects. In particular, compound X was given to mice IP at 20 mg/kg 40 mg/kg and 60 mg/kg daily for 10 days in a MTD study conducted at Leitat.

[2] = Pharmacokinetics (PK studies); assay type: in vivo, mice; details: at the MTD study doses, in words
Experimental: as §1

[3] = system: hepatitis B virus (HBV) ayw strain; assay: Anti-HBV assay with HepG2-2.2.15 cells (HBV DNA replication); assay type: cell-based; details: for Selectivity Index SI50: HepG2-2.2.15 cells; for EC50: Hepatitis B virus, HepG2 2.2.15, read-out: Antiviral Activity EC50
Experimental: (§2) Anti-HBV assays were conducted at Southern Research Organization using an HBV DNA replicon with a luciferase reporter.
(§3) Southern Research reports HepG2-2.2.15 is a stable cell line containing the hepatitis B virus (HBV) ayw strain genome. Antiviral compounds blocking any late step of viral replication such as transcription, translation, pregenome encapsidation, reverse transcription, particle assembly and release can be identified and characterized using this cell line. Initially we test whether a compound will reduce the production of secreted HBV from cells utilizing our real time quantitative PCR (TaqMan) HBV DNA assay.

[4] = Cytotoxicity in anti-HBV assay; assay type: cell-based; details: human; HepG2-2.2.15 cells
Experimental: as §2, §3

Structure (SMILES) | tolerability in MTD study [1] | Cmax [2] | Selectivity Index SI50 [3] | EC50 [3] | activity in an HBV DNA replication assay ([3]; in words) | IC50 [4]
NC1CC1c1ccc(-c2cccc(O)c2)cc1 (stereo not drawn) [Compound X] | tolerated with acceptable toxicity | expected to result in therapeutic levels | 26.8 | 2.24 µM | low micromolar range | 54.8 µM
Nc1ccn([C@@H]2CS[C@H](CO)O2)c(=O)n1 (relative stereo) [Compound 3TC, (2R, cis)-4-amino-1-(2-hydroxymethyl-1,3-oxathiolan-5-yl)-(1H)-pyrimidin-2-one, reference compound] |  |  | >100 | 0.01 µM |  | 60.4 µM
